US10583137B2, “Triazole DAGLα inhibitors” (THE SCRIPPS RESEARCH INSTITUTE, priority 2015, dated 2020)

Key:
DAGLα (hDAGLα-FLAG) = DAGLα (hDAGLα-FLAG) (Homo sapiens (Human), UniProt Q9Y4D2); assay: competitive ABPP, membrane proteome of transfected HEK293T cells; format: biochemical; conditions: for inhibition at 0.4 µM: read-out: DAGLα % inh. 0.4 μM; for inhibition at 0.0032 µM: 3.2 nM, read-out: DAGLα % inh. 3.2 nM
Procedure: (§1) Compounds 19 and 20 were tested for in vitro inhibition of DAGLα and DAGLβ as measured by competitive activity-based protein profiling (ABPP) of […] using a HT-01 probe (targets DAGLα and DAGLβ) and a FP-Rh probe (targets serine hydrolases).
(§2) Briefly, membrane proteome (1 mg/ml, 20 μL) was prepared from HEK293T cells (transiently transfected with hDAGLα-FLAG or hDAGLα-S472A-FLAG, hDAGLβ-FLAG or hDAGLβ-S443A-FLAG) as described in Example 16. The proteome was incubated at room temperature with vehicle (DMSO) or compound in 0.5 μL DMSO for 30 min. The membrane proteome sample was subsequently treated for 30 min with HT-01 probe (1 μM) or FP-Rh probe (1 μM). The reactions were quenched with 10 μL 3× Laemmli sample buffer (final concentrations: 60 mM Tris-Cl pH 6.8, 2% (w/v) SDS, 10% (v/v) glycerol, 5% (v/v) (3-mercaptoethanol, 0.01% (v/v) bromophenol blue). The samples were directly loaded and resolved on SDS page gel (10% acrylamide). The gels were scanned using a ChemiDoc MP system (Cy3 settings, 605/50 filter).
(§3) The resolved proteins were transferred from the gels to a polyvinyldifluoride membrane for Western Blotting using a Trans-Blot® Turbo (BioRad). FLAG-tagged enzymes were stained using rabbit anti-FLAG as primary antibody, and goat-anti-rabbit HRP as secondary antibody. The blot was developed in the dark using a 10 mL luminal solution, 100 μL ECL enhancer and 3 μL H2O2. Chemiluminescence was visualized using a ChemiDoc XRS (BioRad).
(§4) The percentage of DAGL activity remaining in the assayed samples was determined by measuring the integrated optical intensity of the fluorescent protein bands of the Western Blot using image lab 4.1. The relative intensity was compared to the vehicle (DMSO) treated proteins, which were set to 100%. IC50 values were determined by plotting a log(inhibitor) vs. normalized response (Variable slope) dose-response curve generated using Prism software (GraphPad).

DAGLβ (hDAGLβ-FLAG) = DAGLβ (hDAGLβ-FLAG) (Homo sapiens (Human), UniProt Q8NCG7); assay: as above; format: biochemical; conditions: for inhibition at 0.4 µM: read-out: DAGLβ % inh. 0.4 μM; for inhibition at 0.0032 µM: read-out: DAGLβ % inh. 3.2 nM
Procedure: as §1, §2, §3, §4

DAGLβ (hDAGLβ-FLAG), sequence (Q8NCG7 whole entry): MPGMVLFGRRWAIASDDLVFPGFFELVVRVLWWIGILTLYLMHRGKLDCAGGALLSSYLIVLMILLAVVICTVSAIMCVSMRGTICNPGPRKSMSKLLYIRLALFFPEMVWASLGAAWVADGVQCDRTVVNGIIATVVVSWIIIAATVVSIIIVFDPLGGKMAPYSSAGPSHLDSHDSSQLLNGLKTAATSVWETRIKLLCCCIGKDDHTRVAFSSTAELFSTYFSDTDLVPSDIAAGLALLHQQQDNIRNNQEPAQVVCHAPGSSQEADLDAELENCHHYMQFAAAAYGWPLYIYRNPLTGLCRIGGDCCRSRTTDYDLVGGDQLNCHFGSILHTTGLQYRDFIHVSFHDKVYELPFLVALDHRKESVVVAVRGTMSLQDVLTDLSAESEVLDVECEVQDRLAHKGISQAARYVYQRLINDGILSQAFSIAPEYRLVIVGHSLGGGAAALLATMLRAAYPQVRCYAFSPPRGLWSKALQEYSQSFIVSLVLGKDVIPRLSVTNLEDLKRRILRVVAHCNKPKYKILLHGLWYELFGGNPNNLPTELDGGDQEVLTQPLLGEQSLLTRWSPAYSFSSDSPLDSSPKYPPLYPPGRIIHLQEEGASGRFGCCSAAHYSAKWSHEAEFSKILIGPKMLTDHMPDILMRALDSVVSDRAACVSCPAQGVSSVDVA
DAGLα (hDAGLα-FLAG), sequence (Q9Y4D2 whole entry): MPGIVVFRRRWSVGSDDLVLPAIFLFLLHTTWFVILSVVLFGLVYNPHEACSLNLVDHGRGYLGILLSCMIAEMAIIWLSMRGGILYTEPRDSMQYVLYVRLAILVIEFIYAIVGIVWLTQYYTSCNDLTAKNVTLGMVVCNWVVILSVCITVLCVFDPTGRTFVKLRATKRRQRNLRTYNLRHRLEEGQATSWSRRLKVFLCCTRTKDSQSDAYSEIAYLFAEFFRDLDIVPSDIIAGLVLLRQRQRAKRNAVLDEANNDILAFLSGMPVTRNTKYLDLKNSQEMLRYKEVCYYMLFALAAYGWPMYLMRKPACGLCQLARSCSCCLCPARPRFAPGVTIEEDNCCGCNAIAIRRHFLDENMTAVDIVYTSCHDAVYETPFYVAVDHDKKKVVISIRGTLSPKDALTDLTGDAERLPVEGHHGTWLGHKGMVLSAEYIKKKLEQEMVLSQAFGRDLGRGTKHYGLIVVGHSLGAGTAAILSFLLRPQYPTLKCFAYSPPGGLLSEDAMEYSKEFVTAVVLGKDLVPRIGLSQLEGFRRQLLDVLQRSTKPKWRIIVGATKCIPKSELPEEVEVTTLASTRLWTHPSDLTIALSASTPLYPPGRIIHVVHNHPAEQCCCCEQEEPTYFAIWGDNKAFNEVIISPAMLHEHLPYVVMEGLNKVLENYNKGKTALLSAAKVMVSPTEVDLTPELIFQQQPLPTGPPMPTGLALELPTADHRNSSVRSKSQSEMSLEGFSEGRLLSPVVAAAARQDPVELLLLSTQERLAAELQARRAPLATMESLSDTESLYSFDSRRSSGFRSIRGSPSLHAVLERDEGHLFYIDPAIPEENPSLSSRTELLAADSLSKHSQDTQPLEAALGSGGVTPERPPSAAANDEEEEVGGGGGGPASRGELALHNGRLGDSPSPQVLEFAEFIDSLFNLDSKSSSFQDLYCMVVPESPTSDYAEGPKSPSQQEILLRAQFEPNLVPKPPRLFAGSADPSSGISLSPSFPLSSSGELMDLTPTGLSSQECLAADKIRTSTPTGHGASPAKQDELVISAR

SMILES	inhibition at 0.4 µM (DAGLα (hDAGLα-FLAG))	inhibition at 0.4 µM (DAGLβ (hDAGLβ-FLAG))	inhibition at 0.0032 µM (DAGLα (hDAGLα-FLAG))	inhibition at 0.0032 µM (DAGLβ (hDAGLβ-FLAG))
COC(=O)N1CCN(C(=O)n2ncc(-c3ccc(OC(F)(F)F)cc3)n2)C(Cc2ccccc2)C1 (stereo not drawn) [Compound 98, methyl 3-benzyl-4-(4-(4-(trifluoromethoxy)phenyl)-2H-1,2,3-triazole-2-carbonyl)piperazine-1-carboxylate]	0 to 25%	0 to 25%		
CC(C)(C)OC(=O)N1CCN(C(=O)n2ncc(-c3ccc(OC(F)(F)F)cc3)n2)C(Cc2ccccc2)C1 (stereo not drawn) [Compound 99, tert-butyl 3-benzyl-4-(4-(4-(trifluoromethoxy)phenyl)-2H-1,2,3-triazole-2-carbonyl)piperazine-1-carboxylate]	0 to 25%	0 to 25%		
CC(C)(C)OC(=O)N1CCN(C(=O)n2cc(-c3ccc(OC(F)(F)F)cc3)nn2)[C@H](Cc2ccccc2)C1 [Compound 100, tert-butyl (R)-3-benzyl-4-(4-(4-(trifluoromethoxy)phenyl)-1H-1,2,3-triazole-1-carbonyl)piperazine-1-carboxylate]	≥ 75%	≥ 75%		
CC(C)(C)OC(=O)N1CCN(C(=O)n2cc(-c3ccc(OC(F)(F)F)cc3)nn2)[C@@H](Cc2ccccc2)C1 [Compound 102, tert-butyl (S)-3-benzyl-4-(4-(4-(trifluoromethoxy)phenyl)-1H-1,2,3-triazole-1-carbonyl)piperazine-1-carboxylate]	≥ 75%	≥ 75%		
O=C(N1CCCC[C@@H]1Cc1ccccc1)n1ncc(-c2ccc(OC(F)(F)F)cc2)n1 [Compound 104, (R)-(2-benzylpiperidin-1-yl)(4-(4-(trifluoromethoxy)phenyl)-2H-1,2,3-triazol-2-yl)methanone]			0 to 25%	0 to 25%
O=C(N1CCCC[C@H]1Cc1ccccc1)n1ncc(-c2ccc(OC(F)(F)F)cc2)n1 [Compound 105, (S)-(2-benzylpiperidin-1-yl)(4-(4-(trifluoromethoxy)phenyl)-2H-1,2,3-triazol-2-yl)methanone]			0 to 25%	0 to 25%
O=C(N1CCC=C[C@@H]1COCc1ccccc1)n1cc(-c2ccc(OC(F)(F)F)cc2)nn1 [Compound 106, (R)-(6-((benzyloxy)methyl)-3,6-dihydropyridin-1(2H)-yl)(4-(4-(trifluoromethoxy)phenyl)-1H-1,2,3-triazol-1-yl)methanone]			0 to 25%	0 to 25%
O=C(N1CCC=C[C@@H]1COCc1ccccc1)n1ncc(-c2ccc(OC(F)(F)F)cc2)n1 [Compound 107, (R)-(6-((benzyloxy)methyl)-3,6-dihydropyridin-1(2H)-yl)(4-(4-(trifluoromethoxy)phenyl)-2H-1,2,3-triazol-2-yl)methanone]			0 to 25%	0 to 25%
O=C(N1CCC=C[C@H]1COCc1ccccc1)n1cc(-c2ccc(OC(F)(F)F)cc2)nn1 [Compound 108, (S)-(6-((benzyloxy)methyl)-3,6-dihydropyridin-1(2H)-yl)(4-(4-(trifluoromethoxy)phenyl)-1H-1,2,3-triazol-1-yl)methanone]			0 to 25%	0 to 25%
O=C(N1CCC=C[C@H]1COCc1ccccc1)n1ncc(-c2ccc(OC(F)(F)F)cc2)n1 [Compound 109, (S)-(6-((benzyloxy)methyl)-3,6-dihydropyridin-1(2H)-yl)(4-(4-(trifluoromethoxy)phenyl)-2H-1,2,3-triazol-2-yl)methanone]			0 to 25%	0 to 25%
O=C(N1CCCCC1COc1ccccc1)n1cc(-c2ccc(OC(F)(F)F)cc2)nn1 (stereo not drawn) [Compound 110, (2-(phenoxymethyl)piperidin-1-yl)(4-(4-(trifluoromethoxy)phenyl)-1H-1,2,3-triazol-1-yl)methanone]			0 to 25%	0 to 25%
O=C(N1CCCCC1COc1ccccc1)n1ncc(-c2ccc(OC(F)(F)F)cc2)n1 (stereo not drawn) [Compound 111, (2-(phenoxymethyl)piperidin-1-yl)(4-(4-(trifluoromethoxy)phenyl)-2H-1,2,3-triazol-2-yl)methanone]			0 to 25%	0 to 25%
